Measurements as given in patent US12649737B2, “Compounds and uses thereof” (Foghorn Therapeutics Inc., priority 2020, dated 2026).

Columns and labels:
BRM = molecular target: T1, BRM (Homo sapiens, UniProt P51531); assay: ATPase catalytic activity assay of BRM (ADP-Glo); assay type: biochemical; settings: 30 nM BRM, 400 μM ATP, 20 nM salmon sperm DNA, 1 hour at room temperature
T1 construct: made in house; host or cells: High Five insect cells
Procedure: (§1) Example 38. Assay for ATPase Catalytic Activity of BRM and BRG-1
(§2) The ADP-Glo™ kinase assay is performed in two steps once the reaction is complete.

BRG-1 = molecular target: T2, BRG-1 (Homo sapiens, UniProt P51532); assay: ATPase catalytic activity assay of BRG-1 (ADP-Glo); assay type: biochemical; settings: 30 nM BRG-1, 400 μM ATP, 20 nM salmon sperm DNA, 1 hour at room temperature; read-out: BRG1 ATPase: IC50
T2 construct: made in house; host or cells: High Five insect cells
Procedure: as §1, §2

T2 sequence (P51532 whole entry): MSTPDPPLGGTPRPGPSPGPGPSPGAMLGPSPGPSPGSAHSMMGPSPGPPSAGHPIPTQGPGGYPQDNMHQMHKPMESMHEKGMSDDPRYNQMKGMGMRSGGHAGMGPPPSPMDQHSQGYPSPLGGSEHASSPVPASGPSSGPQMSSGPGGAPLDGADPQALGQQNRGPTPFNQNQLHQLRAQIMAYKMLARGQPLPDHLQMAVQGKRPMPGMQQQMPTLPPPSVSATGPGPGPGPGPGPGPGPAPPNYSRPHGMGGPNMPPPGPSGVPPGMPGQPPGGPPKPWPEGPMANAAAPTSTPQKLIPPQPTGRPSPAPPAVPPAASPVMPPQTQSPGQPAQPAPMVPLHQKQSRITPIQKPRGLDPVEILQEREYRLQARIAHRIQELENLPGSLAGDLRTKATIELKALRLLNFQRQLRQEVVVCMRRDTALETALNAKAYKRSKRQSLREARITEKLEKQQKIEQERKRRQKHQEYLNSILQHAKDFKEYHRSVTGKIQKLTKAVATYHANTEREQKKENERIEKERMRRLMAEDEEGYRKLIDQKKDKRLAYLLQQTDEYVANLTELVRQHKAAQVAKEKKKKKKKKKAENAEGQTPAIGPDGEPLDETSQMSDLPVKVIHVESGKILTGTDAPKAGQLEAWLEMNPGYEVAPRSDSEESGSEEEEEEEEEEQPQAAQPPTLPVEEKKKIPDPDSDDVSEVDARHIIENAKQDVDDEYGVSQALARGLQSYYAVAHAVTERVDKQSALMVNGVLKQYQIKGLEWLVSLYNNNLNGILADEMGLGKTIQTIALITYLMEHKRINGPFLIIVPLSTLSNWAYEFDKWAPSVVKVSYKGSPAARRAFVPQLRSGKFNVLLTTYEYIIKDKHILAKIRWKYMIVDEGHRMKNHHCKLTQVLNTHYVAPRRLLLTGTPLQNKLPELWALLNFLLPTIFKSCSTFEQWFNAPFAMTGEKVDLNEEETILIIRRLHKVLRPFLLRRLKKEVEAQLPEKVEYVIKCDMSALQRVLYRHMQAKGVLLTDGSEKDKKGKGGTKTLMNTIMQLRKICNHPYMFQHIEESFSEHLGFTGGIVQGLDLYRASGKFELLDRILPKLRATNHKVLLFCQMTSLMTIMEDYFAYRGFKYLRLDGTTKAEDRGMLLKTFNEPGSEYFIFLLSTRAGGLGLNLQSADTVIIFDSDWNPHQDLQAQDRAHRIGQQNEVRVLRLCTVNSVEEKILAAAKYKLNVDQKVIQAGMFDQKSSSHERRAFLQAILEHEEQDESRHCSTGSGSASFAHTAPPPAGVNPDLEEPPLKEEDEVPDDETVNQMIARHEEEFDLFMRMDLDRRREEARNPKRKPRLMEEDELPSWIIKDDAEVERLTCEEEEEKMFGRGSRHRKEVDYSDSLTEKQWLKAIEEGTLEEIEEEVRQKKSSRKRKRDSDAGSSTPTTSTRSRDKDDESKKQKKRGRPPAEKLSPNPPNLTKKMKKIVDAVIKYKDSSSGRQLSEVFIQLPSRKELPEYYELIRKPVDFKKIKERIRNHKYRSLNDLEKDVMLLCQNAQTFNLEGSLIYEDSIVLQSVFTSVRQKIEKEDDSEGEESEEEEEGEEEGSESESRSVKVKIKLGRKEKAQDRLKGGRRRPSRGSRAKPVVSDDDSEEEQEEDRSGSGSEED
T1 sequence (P51531 whole entry): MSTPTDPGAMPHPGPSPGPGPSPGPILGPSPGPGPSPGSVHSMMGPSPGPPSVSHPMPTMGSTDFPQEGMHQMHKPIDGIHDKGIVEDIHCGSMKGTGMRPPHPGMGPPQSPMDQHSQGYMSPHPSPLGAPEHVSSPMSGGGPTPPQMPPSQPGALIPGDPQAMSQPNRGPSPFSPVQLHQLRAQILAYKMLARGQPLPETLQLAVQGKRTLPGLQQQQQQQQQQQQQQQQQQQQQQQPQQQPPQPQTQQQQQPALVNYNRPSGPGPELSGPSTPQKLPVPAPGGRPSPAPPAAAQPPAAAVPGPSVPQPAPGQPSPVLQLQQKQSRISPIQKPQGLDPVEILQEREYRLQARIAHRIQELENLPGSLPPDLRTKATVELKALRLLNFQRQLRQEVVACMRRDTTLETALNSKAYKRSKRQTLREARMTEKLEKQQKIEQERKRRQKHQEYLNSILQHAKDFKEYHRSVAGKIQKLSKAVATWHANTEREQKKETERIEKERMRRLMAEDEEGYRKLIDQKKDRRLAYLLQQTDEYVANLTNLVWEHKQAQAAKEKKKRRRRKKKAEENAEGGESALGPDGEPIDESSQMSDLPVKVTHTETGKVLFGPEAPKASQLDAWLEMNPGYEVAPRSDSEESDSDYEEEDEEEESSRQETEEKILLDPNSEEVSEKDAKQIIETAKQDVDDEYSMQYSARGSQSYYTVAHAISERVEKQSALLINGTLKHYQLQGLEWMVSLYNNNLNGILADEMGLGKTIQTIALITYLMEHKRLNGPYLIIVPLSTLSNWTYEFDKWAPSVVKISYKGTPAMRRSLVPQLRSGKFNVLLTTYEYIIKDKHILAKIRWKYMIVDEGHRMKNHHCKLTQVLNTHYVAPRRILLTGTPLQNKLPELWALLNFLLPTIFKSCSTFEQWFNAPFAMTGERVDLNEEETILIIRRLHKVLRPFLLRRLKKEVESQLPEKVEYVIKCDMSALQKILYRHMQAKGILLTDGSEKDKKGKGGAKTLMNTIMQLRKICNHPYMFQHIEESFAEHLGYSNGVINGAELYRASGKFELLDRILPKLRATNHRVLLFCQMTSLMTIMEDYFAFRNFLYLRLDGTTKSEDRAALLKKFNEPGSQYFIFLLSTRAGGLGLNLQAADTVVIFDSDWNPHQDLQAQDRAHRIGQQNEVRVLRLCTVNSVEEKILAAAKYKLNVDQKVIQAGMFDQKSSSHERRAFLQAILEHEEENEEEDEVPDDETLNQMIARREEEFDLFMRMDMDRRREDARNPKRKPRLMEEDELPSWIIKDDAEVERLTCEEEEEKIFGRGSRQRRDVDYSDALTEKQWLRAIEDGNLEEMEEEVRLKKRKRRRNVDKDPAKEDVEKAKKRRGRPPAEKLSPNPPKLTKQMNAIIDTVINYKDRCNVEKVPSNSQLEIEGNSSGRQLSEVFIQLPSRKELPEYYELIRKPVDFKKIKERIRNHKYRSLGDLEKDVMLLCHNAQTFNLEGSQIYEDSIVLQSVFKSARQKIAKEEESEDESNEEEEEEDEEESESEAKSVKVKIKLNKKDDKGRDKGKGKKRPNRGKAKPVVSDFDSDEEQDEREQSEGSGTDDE

Row | Compound | IC50 (BRM) | IC50 (BRG-1)
1 | Nc1ccc(C(=O)NCc2nc3ccc(-c4cccc(-c5ccncc5)c4)nc3[nH]2)cc1 [Compound 1, 4-amino-N-((5-(3-(pyridin-4-yl)phenyl)-3H-imidazo[4,5-b]pyridin-2-yl)methyl)benzamide] | 100 to 1000 nM | 100 to 1000 nM
2 | CS(=O)(=O)n1ccc(C(=O)NCc2nc3ccc(-c4cccc(-c5ccncc5)c4)nc3[nH]2)c1 [Compound 2] | 10 to 100 nM | 10 to 100 nM
3 | CC(C)S(=O)(=O)n1ccc(C(=O)NCc2nc3ccc(-c4cccc(-c5ccncc5)c4)nc3[nH]2)c1 [Compound 3] | 10 to 100 nM | 100 to 1000 nM
4 | C[C@H](NC(=O)c1ccn(S(C)(=O)=O)c1)c1nc2ccc(-c3cccc(-c4ccncc4)c3)nc2[nH]1 [Compound 4] | 10 to 100 nM | 10 to 100 nM
5 | C[C@@H](NC(=O)c1ccn(S(C)(=O)=O)c1)c1nc2ccc(-c3cccc(-c4ccncc4)c3)nc2[nH]1 [Compound 5] | 100 to 1000 nM | 100 to 1000 nM
6 | COc1ccc(-c2ccc3nc(CNC(=O)c4ccn(C(C)(C)C)c4)[nH]c3n2)cc1 [Compound 6] | 100 to 1000 nM | 100 to 1000 nM
7 | CS(=O)(=O)n1ccc(C(=O)NCc2nc3ccc(-c4cccc(N5CCC5)c4)cc3[nH]2)c1 [Compound 7] | 100 to 1000 nM | 100 to 1000 nM
8 | CS(=O)(=O)n1ccc(C(=O)NCc2nc3ccc(-c4cccc(N5CCC(O)CC5)c4)cc3[nH]2)c1 [Compound 8, N-((6-(3-(4-hydroxypiperidin-1-yl)phenyl)-1H-benzo[d]imidazol-2-yl)methyl)-1-(methylsulfonyl)-1H-pyrrole-3-carboxamide] | 10 to 100 nM | 100 to 1000 nM
9 | CS(=O)(=O)n1ccc(C(=O)NCc2nc3ccc(-c4ccc(N5CCC5)cc4)nc3[nH]2)c1 [Compound 9] | 10 to 100 nM | 10 to 100 nM
10 | CS(=O)(=O)n1ccc(C(=O)NCc2nc3ccc(-c4cccc(N5CCC5)c4)nc3[nH]2)c1 [Compound 10] | 10 to 100 nM | 100 to 1000 nM
11 | C[C@@H]1CN(c2cccc(-c3ccc4nc(CNC(=O)c5ccn(S(C)(=O)=O)c5)[nH]c4c3)c2)C[C@H](C)O1 [Compound 11] | 10 to 100 nM | 10 to 100 nM
12 | CS(=O)(=O)n1ccc(C(=O)NCc2nc3ccc(-c4cccc(N5CCC(O)CC5)c4)nc3[nH]2)c1 [Compound 12, N-((5-(3-(4-hydroxypiperidin-1-yl)phenyl)-3H-imidazo[4,5-b]pyridin-2-yl)methyl)-1-(methylsulfonyl)-1H-pyrrole-3-carboxamide] | 100 to 1000 nM | 100 to 1000 nM
13 | C[C@@H]1CN(c2cccc(-c3ccc4nc(CNC(=O)c5ccn(S(C)(=O)=O)c5)[nH]c4n3)c2)C[C@H](C)O1 [Compound 13] | 10 to 100 nM | 10 to 100 nM
14 | C[C@@H]1CN(c2ccc(-c3ccc4nc(CNC(=O)c5ccn(S(C)(=O)=O)c5)[nH]c4n3)cc2)C[C@H](C)O1 [Compound 14] | 100 to 1000 nM | 100 to 1000 nM
15 | C[C@@H]1CN(c2cccc(-c3ccc4nc(CNC(=O)c5ccn(C(C)(C)C)c5)[nH]c4c3)c2)C[C@H](C)O1 [Compound 15] | 100 to 1000 nM | 100 to 1000 nM
16 | COc1cccc(-c2ccc3nc(CNC(=O)c4ccn(C(C)(C)C)c4)[nH]c3c2)c1 [Compound 16] | 100 to 1000 nM | 100 to 1000 nM
17 | COc1cccc(-c2ccc3nc(CNC(=O)c4cc(C)n(S(C)(=O)=O)c4)[nH]c3c2)c1 [Compound 17] | 10 to 100 nM | 10 to 100 nM
18 | C[C@@H]1CN(c2cccc(-c3ccc4nc(CNC(=O)c5ccn(C6(C#N)CC6)c5)[nH]c4n3)c2)C[C@H](C)O1 [Compound 18] | 100 to 1000 nM | 100 to 1000 nM
19 | C[C@@H]1CN(c2cccc(-c3ccc4nc(CNC(=O)c5ccn(C(C)(C)C)c5)[nH]c4n3)c2)C[C@H](C)O1 [Compound 19] | 100 to 1000 nM | 100 to 1000 nM
20 | Cn1ccc2ccc(-c3ccc4nc(CNC(=O)c5ccn(C6(C)COC6)c5)[nH]c4c3)cc2c1=O [Compound 20, N-((6-(2-methyl-1-oxo-1,2-dihydroisoquinolin-7-yl)-1H-benzo[d]imidazol-2-yl)methyl)-1-(3-methyloxetan-3-yl)-1H-pyrrole-3-carboxamide] | 100 to 1000 nM | 100 to 1000 nM
21 | COC(=O)N1CCC[C@@H](c2ccc3nc(CNC(=O)c4ccn(S(C)(=O)=O)c4)[nH]c3c2)C1 [Compound 21, (S)-methyl 3-(2-((1-(methylsulfonyl)-1H-pyrrole-3-carboxamido)methyl)-1H-benzo[d]imidazol-6-yl)piperidine-1-carboxylate] | 100 to 1000 nM | 100 to 1000 nM
22 | COC(=O)N1CCC[C@H](c2ccc3nc(CNC(=O)c4ccn(S(C)(=O)=O)c4)[nH]c3c2)C1 [Compound 22, (R)-methyl 3-(2-((1-(methylsulfonyl)-1H-pyrrole-3-carboxamido)methyl)-1H-benzo[d]imidazol-6-yl)piperidine-1-carboxylate] | 100 to 1000 nM | > 1000 nM
23 | CS(=O)(=O)n1ccc(C(=O)NCc2nc3ccc(N4CCCC(C5CCC5)C4)nc3[nH]2)c1 (stereo not shown) [Compound 23] | 100 to 1000 nM | 100 to 1000 nM
24 | CC(C)S(=O)(=O)n1ccc(C(=O)NCc2nc3ccc(-c4ccc5ccn(C)c(=O)c5c4)cc3[nH]2)c1 [Compound 24] | 100 to 1000 nM | 100 to 1000 nM
25 | COC(=O)N1CCC[C@@H](c2ccc3nc(CNC(=O)c4ccn(S(C)(=O)=O)c4)[nH]c3n2)C1 [Compound 25] | 100 to 1000 nM | 100 to 1000 nM
26 | COC(=O)N1CCC[C@H](c2ccc3nc(CNC(=O)c4ccn(S(C)(=O)=O)c4)[nH]c3n2)C1 [Compound 26] | 100 to 1000 nM | > 1000 nM
27 | CS(=O)(=O)n1ccc(C(=O)NCc2nc3ccc(-c4ccccc4)cc3[nH]2)c1 [Compound 27] | 100 to 1000 nM | 100 to 1000 nM

Row | Compound | IC50 (BRM) | IC50 (BRG-1)
28 | CS(=O)(=O)n1ccc(C(=O)NCc2nc3ccc(-c4ccc(OC(F)(F)F)cc4)nc3[nH]2)c1 [Compound 28] | 10 to 100 nM | 10 to 100 nM
29 | CS(=O)(=O)n1ccc(C(=O)NCc2nc3ccc(-c4cccc(OC(F)(F)F)c4)nc3[nH]2)c1 [Compound 29] | 100 to 1000 nM | 100 to 1000 nM
30 | CC(C)(C)n1ccc(C(=O)NCc2nc3ccc(-c4cc(Cl)cc(C#N)c4)cc3[nH]2)c1 [Compound 30] | 10 to 100 nM | 100 to 1000 nM
31 | CN1Cc2ccc(-c3ccc4nc(CNC(=O)c5ccn(C(C)(C)C)c5)[nH]c4c3)cc2C1=O [Compound 31] | 10 to 100 nM | 10 to 100 nM
32 | Cn1ccc2cc(-c3ccc4nc(CNC(=O)c5ccn(C(C)(C)C)c5)[nH]c4c3)ccc21 [Compound 32] | 10 to 100 nM | 10 to 100 nM
33 | Cn1cc2ccc(-c3ccc4nc(CNC(=O)c5ccn(C(C)(C)C)c5)[nH]c4c3)cc2n1 [Compound 33] | 10 to 100 nM | 10 to 100 nM
34 | CC(C)(C)n1ccc(C(=O)NCc2nc3ccc(-c4ccc5ncccc5c4)cc3[nH]2)c1 [Compound 34] | 10 to 100 nM | 10 to 100 nM
35 | COc1ccc(-c2ccc3nc(CNC(=O)c4ccn(C(C)(C)C)c4)[nH]c3c2)cc1Cl [Compound 35] | 10 to 100 nM | 100 to 1000 nM
36 | Cn1ncc2ccc(-c3ccc4nc(CNC(=O)c5ccn(C(C)(C)C)c5)[nH]c4c3)cc21 [Compound 36] | 100 to 1000 nM | 100 to 1000 nM
37 | CC(C)(C)n1ccc(C(=O)NCc2nc3ccc(-c4ccc(C5CC5)cc4)cc3[nH]2)c1 [Compound 37] | 100 to 1000 nM | 100 to 1000 nM
38 | CC(C)(C)n1ccc(C(=O)NCc2nc3ccc(-c4cncc5ccccc45)cc3[nH]2)c1 [Compound 38] | 100 to 1000 nM | 100 to 1000 nM
39 | CC(C)(C)n1ccc(C(=O)NCc2nc3ccc(-c4cccc(C#N)c4)cc3[nH]2)c1 [Compound 39] | 100 to 1000 nM | 100 to 1000 nM
40 | CC(C)(C)n1ccc(C(=O)NCc2nc3ccc(-c4ccc5c(c4)CCO5)cc3[nH]2)c1 [Compound 40] | 100 to 1000 nM | 100 to 1000 nM
41 | CC(C)(C)n1ccc(C(=O)NCc2nc3ccc(-c4ccc5cnccc5c4)cc3[nH]2)c1 [Compound 41] | 10 to 100 nM | 10 to 100 nM
42 | CC(C)(C)n1ccc(C(=O)NCc2nc3ccc(-c4ccc5scnc5c4)cc3[nH]2)c1 [Compound 42] | 10 to 100 nM | 10 to 100 nM
43 | CC(C)(C)n1ccc(C(=O)NCc2nc3ccc(-c4ccc(C#N)cc4)cc3[nH]2)c1 [Compound 43] | 100 to 1000 nM | 100 to 1000 nM
44 | COc1ccc2cc(-c3ccc4nc(CNC(=O)c5ccn(C(C)(C)C)c5)[nH]c4c3)ccc2c1 [Compound 44] | 10 to 100 nM | 10 to 100 nM
45 | CC(C)(C)n1ccc(C(=O)NCc2nc3ccc(-c4ccc5c(c4)OCC5)cc3[nH]2)c1 [Compound 45] | 10 to 100 nM | 100 to 1000 nM
46 | CC(C)(C)OCc1cccc(-c2ccc3nc(CNC(=O)c4ccn(C(C)(C)C)c4)[nH]c3c2)c1 [Compound 46] | 10 to 100 nM | 100 to 1000 nM
47 | CC(C)(C)n1ccc(C(=O)NCc2nc3ccc(-c4cnn5ccccc45)cc3[nH]2)c1 [Compound 47] | 10 to 100 nM | 10 to 100 nM
48 | Cn1ncc2c(-c3ccc4nc(CNC(=O)c5ccn(C(C)(C)C)c5)[nH]c4c3)cccc21 [Compound 48] | 10 to 100 nM | 10 to 100 nM
49 | Cc1nn(C)c2ccc(-c3ccc4nc(CNC(=O)c5ccn(C(C)(C)C)c5)[nH]c4c3)cc12 [Compound 49] | 10 to 100 nM | 10 to 100 nM
50 | Cc1nc2cc(-c3ccc4nc(CNC(=O)c5ccn(C(C)(C)C)c5)[nH]c4c3)ccc2s1 [Compound 50] | 10 to 100 nM | 100 to 1000 nM
51 | CC(C)(C)n1ccc(C(=O)NCc2nc3ccc(-c4cccc5ccncc45)cc3[nH]2)c1 [Compound 51] | 10 to 100 nM | 100 to 1000 nM
52 | Cc1ccc2ccc(-c3ccc4nc(CNC(=O)c5ccn(C(C)(C)C)c5)[nH]c4c3)cc2n1 [Compound 52] | 10 to 100 nM | 10 to 100 nM
53 | CC(C)(C)n1ccc(C(=O)NCc2nc3ccc(-c4ccc(CC#N)cc4)cc3[nH]2)c1 [Compound 53] | 100 to 1000 nM | 100 to 1000 nM
